Assay results taken from patent US7129392B2, “Materials and methods for increasing isoprenoid production in cells” (priority 2000, dated 2006).

Assays:
[1] = molecular target: DXP reductoisomerase (Escherichia coli, UniProt P45568); settings: Kuzuyama et al., 1998; cited from earlier work
[2] = tested on: Nicotiana tabacum var. ‘Xanthi NC’ leaf sections; assay: Toxicity of fosmidomycin to tobacco grown on medium; settings: after three weeks of growth on medium
[3] = tested on: E. coli TOP10 F′; assay: Growth of E. coli control cells on medium containing fosmidomycin; format: cell-based; settings: TOP10 F′ transformed with parent vectors; LB or LB/IPTG with fosmidomycin 20 μg/ml
Protocol: Single colonies of TOP10 F′/pHKO2 (designated strain HK6), TOP10 F′/pHKO3 (designated strain HK7), and TOP10 F′/pHKO9 (designated strain HK8), are used to individually inoculate 4 ml LB/amp cultures and grown overnight at 30° C., 225 rpm. The HK6 and HK7 cultures are serially diluted 10,000 to 100,000-fold and plated on LB containing fosmidomycin (20 μg/ml).

[4] = especially in combination with other herbicides; Kamuro et al.; cited from earlier work

DXP reductoisomerase, sequence (P45568 whole entry): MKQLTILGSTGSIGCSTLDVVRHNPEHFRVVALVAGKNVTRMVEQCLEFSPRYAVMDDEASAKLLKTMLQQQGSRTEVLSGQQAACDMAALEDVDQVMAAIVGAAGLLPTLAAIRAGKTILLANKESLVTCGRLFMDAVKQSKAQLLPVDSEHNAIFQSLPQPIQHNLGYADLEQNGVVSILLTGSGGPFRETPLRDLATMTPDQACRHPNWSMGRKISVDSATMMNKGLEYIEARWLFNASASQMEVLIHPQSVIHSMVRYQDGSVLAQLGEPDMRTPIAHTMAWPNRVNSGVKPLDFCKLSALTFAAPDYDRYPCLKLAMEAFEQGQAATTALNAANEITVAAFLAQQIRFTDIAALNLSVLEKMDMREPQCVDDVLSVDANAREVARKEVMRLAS

For O=CN(O)CCCP(=O)(O)O [fosmidomycin], the “inhibition of the enzyme DXP reductoisomerase” value [1] is given as “specific inhibitor”, the “fosmidomycin concentration at which toxicity is evident in tobacco” value [2] is given as “at least 500 micromolar” and the “growth of E. coli control cells on medium containing fosmidomycin” value [3] is given as “unable to grow”. For the same molecule, the herbicidal activity [4] was “significant herbicidal activity”.
